In test [1] the target is T1, Recombinant full-length human IDO1 (Homo sapiens, UniProt P14902).
T1 construct: Recombinant full-length human IDO1 with a N-terminal hexahistidine tag; hexahistidine (His6) (N); made in house; host or cells: E. coli
In words: IDO1 enzymatic assay (NFK quantified by LCMS). To be noted: 2 nM enzyme, 5 μM L-tryptophan, pH6.5, 30 minutes pre-incubation at RT; mean values when measured multiple times; read-out: hIDO activity (IC50 in nM). Format: biochemical. An outline of the steps: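 IC50 comes from four-parameter logistic fits of duplicate data, with NFK quantified by LCMS and normalized to L-Trp-(indole-d5). Compound (0.5 nM–10 μM) was preincubated 30 min at RT with 2 nM E. coli-expressed IDO1 before a 30 min reaction with 5 μM tryptophan in pH 6.5 buffer containing ascorbate and methylene blue.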

In test [2] the target is T2, Recombinant human TDO comprising amino acids 19-407 (Homo sapiens, UniProt P48775).
T2 construct: Recombinant human TDO comprising amino acids 19-407 with a N-terminal hexahistidine tag; hexahistidine (His6) (N); made in house; host or cells: E. coli
Nature of the test: TDO2 enzymatic assay (NFK quantified by LCMS). Format: biochemical. The settings on record: 15 nM enzyme, 200 μM L-tryptophan, pH7, 30 minutes pre-incubation at RT; mean values when measured multiple times; read-out: hTDO activity (IC50 in nM). An outline of the steps: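 NFK formed over 30 min at RT from 200 μM L-tryptophan was measured by LCMS, normalized to d5-tryptophan, after compound (0.5 nM–10 μM, duplicates, 0.6% DMSO) was preincubated 30 min with 15 nM recombinant His-tagged TDO 19-407 in phosphate buffer pH 7. IC50 from four-parameter logistic fit; repeats averaged.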

For 26 compounds, IC50 results are on record in patent publication US20200405696A1, “INHIBITORS OF INDOLEAMINE 2,3-DIOXYGENASE AND/OR TRYPTOPHAN 2,3-DIOXYGENASE” (IDORSIA PHARMACEUTICALS LTD, priority 2018, published 2020).

Some results are limits rather than exact numbers.

T2 sequence (P48775 19-406 limits assumed): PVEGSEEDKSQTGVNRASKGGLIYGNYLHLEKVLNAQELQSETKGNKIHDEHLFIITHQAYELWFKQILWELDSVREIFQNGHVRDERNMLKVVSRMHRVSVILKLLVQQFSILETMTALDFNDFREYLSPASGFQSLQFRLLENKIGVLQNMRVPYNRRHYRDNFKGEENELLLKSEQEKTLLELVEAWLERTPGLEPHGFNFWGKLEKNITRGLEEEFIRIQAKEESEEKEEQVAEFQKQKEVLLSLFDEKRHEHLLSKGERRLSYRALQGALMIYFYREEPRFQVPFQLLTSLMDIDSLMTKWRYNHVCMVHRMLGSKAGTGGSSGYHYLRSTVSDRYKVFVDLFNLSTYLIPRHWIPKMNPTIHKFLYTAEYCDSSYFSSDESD
T1 sequence (P14902 whole entry): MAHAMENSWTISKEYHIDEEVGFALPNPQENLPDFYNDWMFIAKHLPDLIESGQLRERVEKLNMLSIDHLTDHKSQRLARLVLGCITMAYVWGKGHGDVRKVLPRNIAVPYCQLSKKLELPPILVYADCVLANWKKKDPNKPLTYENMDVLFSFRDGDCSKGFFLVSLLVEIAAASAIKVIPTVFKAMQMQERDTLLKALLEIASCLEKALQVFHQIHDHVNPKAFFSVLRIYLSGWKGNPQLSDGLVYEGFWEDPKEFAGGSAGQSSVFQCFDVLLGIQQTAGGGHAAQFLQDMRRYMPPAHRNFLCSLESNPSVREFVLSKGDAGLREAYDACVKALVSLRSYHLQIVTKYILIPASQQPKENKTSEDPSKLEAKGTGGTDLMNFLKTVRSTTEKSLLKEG

A word on the IC50: it is the concentration that inhibits the measured activity by half. As for `OC(c1cn(-c2ccc(OCc3ccccc3)nc2)nn1)c1c(C2CC2)sc2cncn12` (racemic) [Example 77, rac-[1-(6-Benzyloxy-pyridin-3-yl)-1H-[1,2,3]triazol-4-yl]-(2-cyclopropyl-imidazo[5,1-b]thiazol-3-yl)-methanol], the IC50 in test [1] was 32.7 nM; in test [2], over 10200 nM.

In the case of `CC(=O)Nc1ccc(-n2cc(C(O)c3c(C4CC4)sc4cncn34)nn2)cc1` (racemic) [Example 95, rac-N-(4-{4-[(2-Cyclopropyl-imidazo[5,1-b]thiazol-3-yl)-hydroxy-methyl]-[1,2,3]triazol-1-yl}-phenyl)-acetamide], the half-inhibitory concentration (IC50) in test [1] was 18.3 nM; in test [2], over 10200 nM.

For `CCc1sc2cncn2c1C(O)c1cn(-c2ccc(OC)cc2)nn1` (racemic) [Example 285, rac-(2-Ethyl-imidazo[5,1-b]thiazol-3-yl)-[1-(4-methoxy-phenyl)-1H-[1,2,3]triazol-4-yl]-methanol], the IC50 was 7.91 nM in test [1] and 6470 nM in test [2].

In the case of `N#Cc1ccccc1-c1ccc(C(O)c2c(C3CC3)sc3cncn23)s1` (racemic) [Example 172, rac-2-{5-[(2-Cyclopropyl-imidazo[5,1-b]thiazol-3-yl)-hydroxy-methyl]-thiophen-2-yl}-benzonitrile], the results for the IC50 in test [1] and in test [2] were 272 nM and 4080 nM, respectively.

Regarding `O=[N+]([O-])c1cc(-n2cc(C(O)c3c(-c4ccccc4)sc4cncn34)nn2)ccc1O` (racemic) [Example 250, rac-4-{4-[Hydroxy-(2-phenyl-imidazo[5,1-b]thiazol-3-yl)-methyl]-[1,2,3]triazol-1-yl}-2-nitro-phenol], the IC50 in test [1] amounted to 23.8 nM; in test [2], 2300 nM.

`Cc1sc2cncn2c1C(O)c1cn(Cc2ccccc2)nn1` (racemic) [Example 62, rac-(1-Benzyl-1H-[1,2,3]triazol-4-yl)-(2-methyl-imidazo[5,1-b]thiazol-3-yl)-methanol]: the IC50 in test [1] was 795 nM; in test [2], over 10200 nM.

On to `COc1ccc(-n2cc(C(O)c3c([C@@H]4C[C@@H]4F)sc4cncn34)nn2)cc1` (relative stereo) [Example 93, [2-(cis-2-Fluoro-cyclopropyl)-imidazo[5,1-b]thiazol-3-yl]-[1-(4-methoxy-phenyl)-1H-[1,2,3]triazol-4-yl]-methanol], for which the 50% inhibitory concentration (IC50) was 25 nM in test [1] and over 10200 nM in test [2].

Consider `CCc1sc2cncn2c1C(O)c1cn(-c2ccc(S(N)(=O)=O)cc2)nn1` (racemic) [Example 240, rac-4-{4-[(2-Ethyl-imidazo[5,1-b]thiazol-3-yl)-hydroxy-methyl]-[1,2,3]triazol-1-yl}-benzenesulfonamide], for which the IC50 in test [1] turned out to be 28.3 nM; in test [2], 7480 nM.

For the compound `CCc1sc2cncn2c1C(O)c1cn(-c2ccc(N)c(Cl)c2)nn1` (racemic) [Example 272, rac-[1-(4-Amino-3-chloro-phenyl)-1H-[1,2,3]triazol-4-yl]-(2-ethyl-imidazo[5,1-b]thiazol-3-yl)-methanol], the IC50 in test [1] is 4.44 nM; in test [2], 3840 nM.

For `OC(c1cn(-c2ccc(OCc3ccccn3)cc2)nn1)c1c(C2CC2)sc2cncn12` (racemic) [Example 203, rac-(2-Cyclopropyl-imidazo[5,1-b]thiazol-3-yl)-{1-[4-(pyridin-2-ylmethoxy)-phenyl]-1H-[1,2,3]triazol-4-yl}-methanol], the results for the IC50 in test [1] and in test [2] were 1350 nM and over 10200 nM, respectively.

As to `OC(c1cn(-c2ccc(OCC3CC3)c(Cl)c2)nn1)c1c(-c2ccccc2)sc2cncn12` (racemic) [Example 265, rac-[1-(3-Chloro-4-cyclopropylmethoxy-phenyl)-1H-[1,2,3]triazol-4-yl]-(2-phenyl-imidazo[5,1-b]thiazol-3-yl)-methanol], the IC50 was 442 nM in test [1] and over 10200 nM in test [2].

As for `Oc1ccc(-n2cc([C@H](O)c3c(C4CC4)sc4cncn34)nn2)cc1Cl` [Example 148a, 2-Chloro-4-{4-[(R)-(2-cyclopropyl-imidazo[5,1-b]thiazol-3-yl)-hydroxy-methyl]-[1,2,3]triazol-1-yl}-phenol], the IC50 in test [1] stood at 5.25 nM; in test [2] it was 4440 nM.

Turning to `N#Cc1cc(-n2cc(C(O)c3c(C4CC4)sc4cncn34)nn2)ccc1OC(F)(F)F` (racemic) [Example 199, rac-5-{4-[(2-Cyclopropyl-imidazo[5,1-b]thiazol-3-yl)-hydroxy-methyl]-[1,2,3]triazol-1-yl}-2-trifluoromethoxy-benzonitrile], the figures for the IC50 in test [1] and in test [2] were 73.1 nM and over 10200 nM, respectively.

Regarding `COc1ccc(-n2nnc(C(O)c3c([C@@H]4C[C@H]4F)sc4cncn34)c2F)cc1` (relative stereo) [Example 335, [2-(trans-2-Fluoro-cyclopropyl)-imidazo[5,1-b]thiazol-3-yl]-[5-fluoro-1-(4-methoxy-phenyl)-1H-[1,2,3]triazol-4-yl]-methanol], the IC50 in test [1] was 23 nM; in test [2], over 10200 nM.

Consider `OCc1ccc(-n2cc(C(O)c3c(C4CC4)sc4cncn34)nn2)cc1` (racemic) [Example 310, rac-(2-Cyclopropyl-imidazo[5,1-b]thiazol-3-yl)-[1-(4-hydroxymethyl-phenyl)-1H-[1,2,3]triazol-4-yl]-methanol], for which the IC50 was 50.1 nM in test [1] and over 10200 nM in test [2].

For the compound `OC(c1cn(-c2ccccc2)nn1)c1c(C2CCCC2)sc2cncn12` (racemic) [Example 13, rac-(2-Cyclopentyl-imidazo[5,1-b]thiazol-3-yl)-(1-phenyl-1H-[1,2,3]triazol-4-yl)-methanol], the figures for the half-maximal inhibitory concentration (IC50) in test [1] and in test [2] were 54.4 nM and 8410 nM, respectively.

`CCc1sc2cncn2c1C(O)c1cn(-c2ccc3[nH]ccc3c2)nn1` (racemic) [Example 50, rac-(2-Ethyl-imidazo[5,1-b]thiazol-3-yl)-[1-(1H-indol-5-yl)-1H-[1,2,3]triazol-4-yl]-methanol]: the IC50 in test [1] is 9.63 nM; in test [2] it was 1970 nM.

Consider `COC(=O)COc1ccc(-n2cc(C(O)c3c(C4CC4)sc4cncn34)nn2)cn1` (racemic) [Example 75, rac-(5-{4-[(2-Cyclopropyl-imidazo[5,1-b]thiazol-3-yl)-hydroxy-methyl]-[1,2,3]triazol-1-yl}-pyridin-2-yloxy)-acetic acid methyl ester], for which the figures for the IC50 in test [1] and in test [2] were 40.7 nM and over 10200 nM, respectively.

For the compound `OC(c1cn(-c2ccc(OCC3COC3)cc2)nn1)c1c(C2CC2)sc2cncn12` (racemic) [Example 88, rac-(2-Cyclopropyl-imidazo[5,1-b]thiazol-3-yl)-{1-[4-(oxetan-3-ylmethoxy)-phenyl]-1H-[1,2,3]triazol-4-yl}-methanol], the IC50 in test [1] was 12.6 nM; in test [2], over 10200 nM.

Regarding `CCc1sc2cncn2c1C(O)c1cn(-c2ccc(OCCC(C)(C)O)c(Cl)c2)nn1` (racemic) [Example 302, rac-4-(2-Chloro-4-{4-[(2-ethyl-imidazo[5,1-b]thiazol-3-yl)-hydroxy-methyl]-[1,2,3]triazol-1-yl}-phenoxy)-2-methyl-butan-2-ol], the half-maximal inhibitory concentration (IC50) in test [1] was 6.88 nM; in test [2], over 10200 nM.

`O[C@@H](c1cnn(-c2ccccc2)c1)c1c(C2CC2)sc2cncn12` [Example 100a, (S)-(2-Cyclopropyl-imidazo[5,1-b]thiazol-3-yl)-(1-phenyl-1H-pyrazol-4-yl)-methanol]: the IC50 in test [1] turned out to be 17.5 nM; in test [2], 2450 nM.

As for `Cc1sc2cncn2c1C(O)c1cn(-c2ccccc2)nn1` (racemic) [Example 17, rac-(2-Methyl-imidazo[5,1-b]thiazol-3-yl)-(1-phenyl-1H-[1,2,3]triazol-4-yl)-methanol], the figures for the IC50 in test [1] and in test [2] were 154 nM and over 10200 nM, respectively.

Consider `COc1cc(F)c(-n2cc(C(O)c3c(C4CC4)sc4cncn34)nn2)cc1Cl` (racemic) [Example 300, rac-[1-(5-Chloro-2-fluoro-4-methoxy-phenyl)-1H-[1,2,3]triazol-4-yl]-(2-cyclopropyl-imidazo[5,1-b]thiazol-3-yl)-methanol], for which the IC50 in test [1] was 6.66 nM; in test [2], over 10200 nM.

With `OC(c1cn(-c2ccccc2)cn1)c1c(C2CC2)sc2cncn12` (racemic) [Example 178, rac-(2-Cyclopropyl-imidazo[5,1-b]thiazol-3-yl)-(1-phenyl-1H-imidazol-4-yl)-methanol], the results for the IC50 in test [1] and in test [2] were 515 nM and over 10200 nM, respectively.

`CCc1sc2cncn2c1C(O)c1cn(-c2ccc(NC(=O)N3CCOCC3)cc2)nn1` (racemic) [Example 121, rac-Morpholine-4-carboxylic acid (4-{4-[(2-ethyl-imidazo[5,1-b]thiazol-3-yl)-hydroxy-methyl]-[1,2,3]triazol-1-yl}-phenyl)-amide]: the figures for the IC50 in test [1] and in test [2] were 32 nM and 7720 nM, respectively.

As for `COc1ccccc1-c1ccc(C(O)c2c(C3CC3)sc3cncn23)s1` (racemic) [Example 166, rac-(2-Cyclopropyl-imidazo[5,1-b]thiazol-3-yl)-[5-(2-methoxy-phenyl)-thiophen-2-yl]-methanol], the IC50 is 587 nM in test [1] and over 10200 nM in test [2].
